Experimental data reported in patent US9700042B2, “Nanoformulation of musk-derived bioactive ingredients for nanocosmetic applications” (priority 2014, dated 2017).

Test system: tested microorganisms fungi and bacteria
Assay: Anti-microbial activities (disc diffusion, all test organisms)
Format: cell-based
Details: filter paper discs
Protocol: Pathogenic Fungi: Aspergillus niger, Aspergillus fumigatus, Aspergillus flavus, Fusarium oxysporum and Candida albicans were cultured on sabaroud dextrous agar media (Oxioid CM 41) at 25° C.
Pathogenic bacteria: Staphylococcus aureus and Pseudomonas aeroginosa were cultured on Mueller Hinton media (Oxioid CM 41) at 37° C.
Biological activity: Antimicrobial activities of the 3-hydroxyl p-Anisaldehyde (C8H8O3) and p-Hydroxy-acetophenone (C8H8O2) compounds were tested against the fungal species Aspergillus niger, Aspergillus fumigatus, Aspergillus flavus, Fusarium oxysporum and Candida albicans. […]
Antifungal activities: The agar disc diffusion method was used to evaluate the antifungal activities of the tested compounds (Bauer, A.W., et al., Antibiotic susceptibility testing by a standard single disk diffusion method, Amer. J. Clin. Pathol. 45:493-496 (1966)). […] The diameter of the inhibition zones were measured in millimeters after 4 days at 25±2° C. […]
Antibacterial activities: Antibacterial activities of the tested compounds were employed by used the agar disc diffusion method Hasenekoglu (1990). Suspension of the tested bacteria (10^6 CFU/μl ,O.D was measured calorimetry using spectrophotometer (Spectro, labomed, Inc.) at […]) were spread on Mueller Hinton Agar (Oxioid). […] The diameter of the inhibition zones were measured in millimeters after 24 h at 37° C. […]

SMILES: CC(=O)c1ccc(O)cc1 [p-Hydroxyacetophenone]
- Inhibition of growth of tested microorganisms (clear zones around discs): have the ability to inhibit the growth
